Results taken from patent US9920088B2, “Triterpene derivative and its anti-influenza use” (Peking University, priority 2012, dated 2018).
Read-outs that look alike come from different tables or passages of the source.

What was measured:
[1] = test system: A/HuNan-ZhuHui/1222/2010 (H3N2); test: CPE reduction assay, HN/1222 (H3N2); type: cell-based; conditions: Influenza A virus
[2] = test system: A/LiaoNing-ZhenXing/1109/2010(H1N1); test: CPE reduction assay, LN/1109 (H1N1); type: cell-based; conditions: Influenza A virus

Row | Compound | EC50 ([1]; read-out: EC50) | EC50 ([2]; read-out: EC50) | EC50 [1] | EC50 [2]
1 | CC1(C)CC[C@]2(C(=O)O[C@H]3OC(CO)[C@@H](O)C(O)C3O)C(O)C[C@]3(C)C(=CC[C@@H]4[C@@]5(C)CC[C@H](O)C(C)(C)[C@@H]5CC[C@]43C)[C@@H]2C1 (stereo partly drawn) [Compound Q9, 3β,16α-dihydroxy-olean-12-en-28-oic acid-28-O-(β-D-galactoside)] | 25.6 ± 9.14 µM | 17.8 ± 12.6 µM |  | 
2 | NC12CC3CC(CC(C3)C1)C2 [Amantadine, amantadine, reference compound] | > 200 µM | 0.44 ± 0.14 µM |  | 
3 | CCOC(=O)C1=C[C@@H](OC(CC)CC)[C@H](NC(C)=O)[C@@H](N)C1 [OSV-P, oseltamivir phosphate, reference compound] | 8.75 ± 4.41 µM | > 200 µM |  | 
4 | CC1(C)CC[C@@]2(C(=O)N[C@H]3OC(CO)[C@@H](O)C(O)C3O)C(C1)C1=CCC3[C@@]4(C)CC[C@H](O)C(C)(C)C4CC[C@@]3(C)[C@]1(C)C[C@H]2O (stereo partly drawn) [Compound Y2, 3β,16α-dihydroxy-olean-12-en-28-oic acid-28-N-(β-D-galactoside)] | > 22.2 µM | > 22.2 µM |  | 
5 | NC(=O)c1ncn([C@@H]2O[C@H](CO)[C@@H](O)[C@H]2O)n1 [RBV, ribavirin, reference compound] |  |  | 3.56 ± 0.24 µM | 5.75 ± 0.35 µM
6 | CC(=O)OCC1O[C@H](NC(=O)[C@]23CCC(C)(C)CC2C2=CCC4[C@@]5(C)CC[C@H](O)C(C)(C)C5CC[C@@]4(C)[C@]2(C)CC3)C(OC(C)=O)C(OC(C)=O)[C@@H]1OC(C)=O (stereo partly drawn) [Compound Y5, 3β-hydroxy-olean-12-en-28-oic acid-28-N-(2,3,4,6-tetra-O-acetyl-β-D-galactoside)] | 3.18 ± 0.08 µM | 6.58 ± 1.17 µM |  | 
